System: NOMO1
Assay: cell viability relative to DMSO control; higher = less cytotoxic
Details: 48 h
Summary of the method: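 Library compounds in DMSO were pin-dosed in an 11-point threefold series (47 μM to 0.79 nM) onto leukemia cells in 1536-well plates (5 μl). Plates held 500 cells/well of NOMO1 or SEM or 1000 cells/well of P12-Ichikawa, each adapted for at least four passages in each medium. Luminescence was read with CellTiter-Glo One after 48 h at 37°C. Viability means the per-plate percentage relative to DMSO wells, using cell-free wells as background.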

[1] = HPLM + 10% dialyzed FBS, 0.000781 µM
[2] = HPLM + 10% dialyzed FBS, 0.00234 µM
[3] = HPLM + 10% dialyzed FBS, 0.00702 µM
[4] = HPLM + 10% dialyzed FBS, 0.0211 µM
[5] = HPLM + 10% dialyzed FBS, 0.0632 µM
[6] = HPLM + 10% dialyzed FBS, 0.19 µM
[7] = HPLM + 10% dialyzed FBS, 0.569 µM
[8] = HPLM + 10% dialyzed FBS, 1.71 µM
[9] = HPLM + 10% dialyzed FBS, 5.12 µM
[10] = HPLM + 10% dialyzed FBS, 15.4 µM
[11] = HPLM + 10% dialyzed FBS, 46.1 µM
[12] = RPMI 5 mM glucose + 10% FBS, 0.000781 µM
[13] = RPMI 5 mM glucose + 10% FBS, 0.00234 µM
[14] = RPMI 5 mM glucose + 10% FBS, 0.00702 µM
[15] = RPMI 5 mM glucose + 10% FBS, 0.0211 µM
[16] = RPMI 5 mM glucose + 10% FBS, 0.0632 µM
[17] = RPMI 5 mM glucose + 10% FBS, 0.19 µM
[18] = RPMI 5 mM glucose + 10% FBS, 0.569 µM
[19] = RPMI 5 mM glucose + 10% FBS, 1.71 µM
[20] = RPMI 5 mM glucose + 10% FBS, 5.12 µM
[21] = RPMI 5 mM glucose + 10% FBS, 15.4 µM
[22] = RPMI 5 mM glucose + 10% FBS, 46.1 µM
[23] = RPMI 5 mM glucose + 10% dialyzed FBS, 0.000781 µM
[24] = RPMI 5 mM glucose + 10% dialyzed FBS, 0.00234 µM
[25] = RPMI 5 mM glucose + 10% dialyzed FBS, 0.00702 µM
[26] = RPMI 5 mM glucose + 10% dialyzed FBS, 0.0211 µM
[27] = RPMI 5 mM glucose + 10% dialyzed FBS, 0.0632 µM
[28] = RPMI 5 mM glucose + 10% dialyzed FBS, 0.19 µM
[29] = RPMI 5 mM glucose + 10% dialyzed FBS, 0.569 µM
[30] = RPMI 5 mM glucose + 10% dialyzed FBS, 1.71 µM
[31] = RPMI 5 mM glucose + 10% dialyzed FBS, 5.12 µM
[32] = RPMI 5 mM glucose + 10% dialyzed FBS, 15.4 µM
[33] = RPMI 5 mM glucose + 10% dialyzed FBS, 46.1 µM

Structure (SMILES)	cell viability [1] [%]	cell viability [2] [%]	cell viability [3] [%]	cell viability [4] [%]	cell viability [5] [%]	cell viability [6] [%]	cell viability [7] [%]	cell viability [8] [%]	cell viability [9] [%]	cell viability [10] [%]	cell viability [11] [%]	cell viability [12] [%]	cell viability [13] [%]	cell viability [14] [%]	cell viability [15] [%]	cell viability [16] [%]	cell viability [17] [%]	cell viability [18] [%]	cell viability [19] [%]	cell viability [20] [%]	cell viability [21] [%]	cell viability [22] [%]	cell viability [23] [%]	cell viability [24] [%]	cell viability [25] [%]	cell viability [26] [%]	cell viability [27] [%]	cell viability [28] [%]	cell viability [29] [%]	cell viability [30] [%]	cell viability [31] [%]	cell viability [32] [%]	cell viability [33] [%]
N#C/C(=C1/Nc2ccccc2S1)c1ccnc(OCc2ccc(CN3CCOCC3)cc2)n1	104	120	97.1	127	122	122	107	84.9	86	25.2	27.5	104	109	105	117	113	115	109	101	103	13.4	13.7	112	105	96	120	109	114	111	99	86	18	14.6
Cn1cnc([N+](=O)[O-])c1Sc1ncnc2nc[nH]c12	79.8	79.6	107	99.1	109	93.9	114	89.9	6.49	6.93	7.54	79.6	87.5	91.3	96.6	85.1	95.6	82.8	73.1	57.4	6.27	5.14	88.9	96.7	93.3	90	98.6	92.2	90	77.9	48.6	6.5	6.03
NNc1nncc2ccccc12	115	125	131	139	144	146	134	139	132	119	128	123	121	128	126	151	124	135	130	128	137	131	121	139	121	130	137	132	141	138	134	131	141
